We go through one compound from patent US20260151391A1, “TREATMENT OF MITOCHONDRIAL DISEASES WITH sGC STIMULATORS” (Tisento Therapeutics Inc., priority 2022, published 2026).

Structures are written as SMILES.

One experiment deals with sGC enzyme. As to the kind of experiment: cGMP GloSensor cell-based assay, 384-well format. More on the design: species or system human. The note with it: HEK293 GloSensor 40F cGMP cells, 10 μM DETA-NONOate; geometrical mean; I-20 and I-14: average of free acid and sodium salt; read-out: Glo EC50. From the text:
Human embryonic kidney cells (HEK293) cells expressing GloSensor™ 40F cGMP (Part No: CS182801, Promega) were used to evaluate the activity of test compounds. The luminescent biosensors (engineered luciferase) that were incorporated into these cells detect cGMP formed by the compounds stimulating the sGC enzyme and emit luminescence.
cGMP GloSensor cells were maintained in Dulbecco's Modification of Eagle's Medium (DMEM) supplemented with fetal bovine serum (FBS, 10% final) and hygromycine (200 ug/ml). The day before assay, cells were plated in DMEM with 10% FBS in a 50 μL volume at a density of 1.5×10^4 cells/well in a poly-D-lysine coated 384-well flat white-bottom plate (Corning Cat No 35661). […] Test compounds and Diethylenetriamine NONOate (DETA-NONOate) was diluted to 3 mM (20×) in serum-free CO2 independent medium and serially diluted at 4× dilutions to create 5× dose curve from which 10 ul was added to the wells (x μM concentration for test compound solution and 10 μM concentration for DETA-NONOate solution; wherein x is one of the following final concentrations: 30 μM, 7.5 μM, 1.9 μM, 469 nM, 117 nM, 29.3 nM, 7.3 nM, 1.83 nM, 0.46 nM, 0.11 nM, 0.03 nM) For the kinetics studies, luminescense was measured right away for 0.2 sec per well with Envision (Perkin Elmer). […]
(§1) Concentration response data were analyzed using a 4-parameter fit (log (agonist) vs. response-variable slope). […]

A further experiment has as its system sGC. Kind of experiment: cGMP neuronal cell-based assay (rat primary neurons). The note with it: rat primary hippocampal neurons, DETA-NO 10 μM or 30 μM, cGMP by LC-MS/MS; I-20 and I-14: average of free acid and sodium salt; read-out: sGC Neuron EC50. The protocol: Rat primary neurons were isolated from fetuses of 18-day pregnant Sprague-Dawley females. The fetuses were collected in Hanks' balanced salt solution (HBSS) and brains were rapidly removed. The cerebral hippocampi were isolated and mechanically fragmented. Further tissue digestion was performed with 0.25% (wt/vol) trypsin solution in HBSS without Ca2+ and Mg2+ for 15 min at 37° C. After trypsination, cells were washed and resuspended in neurobasal medium supplemented with 0.5 mM L-glutamine, 12.5 uM glutamic acid, 2% B-27 and 100 U/mL penicillin, and 100 μg/mL streptomycin. Cells were plated at a density of 26×10^3 or 3×10^4 or 4×10^4 cells/well in a poly-D-lysine coated 384-well flat clear-bottom plate (Corning Cat No 354662). Cells were incubated 6-7 days at 37° C. in a humidified chamber with 5% CO2. Media was removed and cells were washed 1× with HBSS containing Ca2+ and Mg2+, and replaced with 40 uL HBSS containing 0.5 mM IBMX, and incubated for 15 minutes at 37° C. […] Following centrifugation at 4° C. for 5 minutes at 1000×g to pellet cell debris, the supernatant was aspirated to a clean plate and the samples were analyzed for cGMP content. cGMP concentrations were determined from each sample using LC-MS/MS.
as §1

Turning to `Cc1cc(F)c(Cc2nc(-c3ncc(F)c(O)n3)cn3ccnc23)cc1F` [Compound I-14, 5-fluoro-2-(8-(2,5-difluoro-4-methylbenzyl)imidazo[1,2-a]pyrazin-6-yl)pyrimidin-4-ol], the EC50 in the experiment on sGC enzyme and in the experiment on sGC was not above 100 nM throughout.
